Reference: patent publication US7157477B2, “Aliphatic amino-substituted demethoxylated hypocrellins and their synthesis” (Altachem Pharma Ltd., priority 2000, dated 2007)
Entries after “also recorded” stand apart in the source; their conditions may differ.

Assays:
HeLa cells [1] = assay: DNA agarose gel electrophoresis (DNA ladder); assay type: cell-based; conditions: for DNA ladder, photosensitizer alone: 4 μM incubation, no light; for DNA ladder at early times: 3 and 6 h post-irradiation; for DNA ladder after photosensitization: 24 h after treatment at LD70 and LD90
Method: Stock sensitizer-DMSO solutions were diluted with DMEM containing 1% FBS. […] The cells were detached using 0.2% trypsin/0.5 mM EDTA solution in PBS and centrifuge-washed to remove unbound dyes. The cells were then transferred to 35-mm dishes (Costar)) 1 ml inch dish containing 3×10s cells, and irradiated with different doses of light. […] Immediately after irradiation, 2 ml DMEM containing 7.5% FBS was added to each dish.
The DNA was extracted as described previously [18] with some modification. Cells (2×106) were detached with the use of 0.2% trypsin/0.5 mM EDTA solution washed with PBS and pelleted by centrifugation. The cell pellets were suspended in lysis buffer consisting of 0.5% sodium dodecyl sulfate (SDS), 2 mM EDTA, 100 mg/ml proteinase K, and SO mM Tris-HC buffer (pH 8.0). After 24 h lysis at 37° C., the DNA was extracted with an equal volume of water-saturated phenol/chloroform/isoamyl alcohol (25:24:1). The aqueous phase was collected and DNA was precipitated with 0.5 volume ammonium acetate and 2.5 volumes cold absolute ethanol, and stored overnight at −20° C. The DNA was dissolved in TE (0.5 M EDTA in 1 M Tris-HCl buffer, pH 8.0) and incubated with DNase-free RNase A (100 mg/ml) at 37° C. for 1 h. The samples were electrophoresed for 3 h at 60 V in 1.5% agarose gel containing 0.5 μg ml^−1 ethidium bromide and visualized by UV transillumination.

HeLa cells [2] = assay: Dark toxicity, MTT assay; assay type: cell-based; conditions: HB 15 min, 2-BA-2-DMHB 6 h; highest concentration tested 100 μM
Method: The dark toxicity characteristic of each compound was assessed separately following a similar procedure for cell exposure to graded doses of […] for 15 min or 2-BA-2-DMHB for 6 h. Precautions were taken to avoid exposure of the cells to light throughout the period when'the cells were exposed to, or contained, photosensitizers.

[3] = Absorption spectra of photosensitizers in chloroform; assay type: physicochemical; conditions: for log6 at first band λmax / log6 at second band λmax / log6 at third band λmax / λmax (nm), first band / λmax (nm), second band / λmax (nm), third band: in chloroform
HeLa cells [4] = assay: Distribution ratio (cellular uptake by fluorescence); assay type: cell-based; conditions: for distribution ratio [Sen/g cells]/[Sen/ml medium]: extra-cellular drug 0 to 5 μM, HB 15 min, 2-BA-2-DMHB 6 h, 37° C.
Method: HeLa cells were maintained as monolayer culture in DMEM containing 5% FBS and antibiotics PS (80 U/ml penicillin and 100 μg/ml streptomycin) at 37° C. in a humidified 5% CO2 incubator.
The distribution ratio or the photosensitizer is defined as [Sen/g cells]/[Sen/ml medium]. The values were measured as described previously. Exponentially growing cells were incubated in DMEM with HB for 15 min or with 2-BA-2-DMHB for 6 h at 37° C., ranging from 0 to 5 μM. […] The washed pellets (2×10^6) were dispersed in 3 ml of 10 mM Triton X-100 detergent. These solutions were excited at 460 nm and the fluorescence emission spectra were acquired using Hitachi-F4500 fluorescence spectrophotometer. Fluorescence at 610 nm was determined, corrected for the fluorescence of control (drug-free) sample, and compared with a standard fluorescence-intensity curve prepared with HB and 2-BA-2-DMHB solutions of known concentration.

HeLa cells [5] = assay: Sensitizer localization by fluorescence microscopy; assay type: cell-based; conditions: 4 μM; HB 15 min, 2-BA-2-DMHB 6 h
Method: Cells growing on glass were incubated in DMEM with 4 μM HB for 15 min or with 4 μM 2-BA-2-DMHB for 6 h at 37° C. Fluorescence was visualized by Nikon FXA microscope to assess sites of sensitizer location (excitation=400–450 nm, emission=600–650 nm).

HeLa cells [6] = conditions: for photopotentiation factor (LD50 dark / LD50 with 24 J cm−2 red light): MTT assay
Method: Stock sensitizer-DMSO solutions were diluted with DMEM containing 1% FBS. […] The cells were detached using 0.2% trypsin/0.5 mM EDTA solution in PBS and centrifuge-washed to remove unbound dyes. The cells were then transferred to 35-mm dishes (Costar)) 1 ml inch dish containing 3×10s cells, and irradiated with different doses of light. […] Immediately after irradiation, 2 ml DMEM containing 7.5% FBS was added to each dish. Then a portion of the cells was assessed for survival as follows and the rest were incubated in the medium until they could be checked for nucleus staining, DNA fragmentation and flow cytometry analysis.
Cell survival was estimated by the MTT assay [11,15,16]. PDT-treated cells were transferred into flat-bottomed 96-well plates (Costar) 100 μl in each well containing 1×10^4 cells and the cells were incubated at 37° C. in a. CO2, incubator for 20 h. Viability was determined by adding 10 μl MTT (10 mg ml^−1) to each well, and the mixture was incubated for 4 h at 37° C. Culture medium was then replaced with dimethylsulfoxide to dissolve the formazan crystals. […] Samples were measured in 12 replicates and each experiment was repeated at least twice. Survival of PDT-treated cells was normalized against cells incubated with photosensitizer alone.

HeLa cells [7] = assay: Hoechst 33342 nuclear staining for apoptotic nuclei; assay type: cell-based
Method: Treated and control cells were incubated in DMEM with 0.5% FBS for 24 h at 37° C., then collected by detachment and centrifugation and incubated in a growth medium (FBS free) containing 5 μM H0342 for 5 min at 37° C. Nuclear fragmentation was assessed by fluorescence microscopy using Nikon FxA microscope. The EX wavelength was 330–380 nm with EM monitored at 420–450 nm.

HeLa cells [8] = assay: Flow cytometric detection of DNA fragmentation (PI staining); assay type: cell-based; conditions: for induction of apoptosis: evidenced by Hoechst staining, gel electrophoresis and flow cytometry; for hypoploid cell population: photosensitized cells
Method: Stock sensitizer-DMSO solutions were diluted with DMEM containing 1% FBS. […] The cells were detached using 0.2% trypsin/0.5 mM EDTA solution in PBS and centrifuge-washed to remove unbound dyes. The cells were then transferred to 35-mm dishes (Costar)) 1 ml inch dish containing 3×10s cells, and irradiated with different doses of light. The light source was a Red Light Treatment Instrument (Institute of Electronic Academia Sinica, China), Its total power output, more than 90% at 600–700 nm was 50 mW cm^2 at the position of the, samples, measured with BTY-8204 radiometer (Beijing Institute of Solar Energy, China). Immediately after irradiation, 2 ml DMEM containing 7.5% FBS was added to each dish. Then a portion of the cells was assessed for survival as follows and the rest were incubated in the medium until they could be checked for nucleus staining, DNA fragmentation and flow cytometry analysis.
A propidium iodide (PI) staining technique was used to assess the status of cellular DNA [19]. Cells were washed twice with ice-cold PBS and then permeabilized and fixed in 80% ethanol at 4° C. for 24 h. Cells were washed twice with PBS and suspended in PBS with RNase A (100 mg/ml) and incubated at 37° C. for 30 min. At this point the PI solution (10 mg/ml in PBS) was added to the cells in RNase solution, and the incubation was continued for 30 min at 4° C. After that, the cells were analyzed by Epics XL flow cytometer (Coulter, USA).

[9] = Superoxide anion radical generation by DMPO spin-trapping ESR; assay type: physicochemical; conditions: in DMSO, relative to HB
Method: (§1) Singlet oxygen yields were determined as previously reported by the DPA bleaching method. The electron spin resonance (ESR) measurement of, spin trapping of DMPO was used to determine the generation of O2 by hypocrellins.
DMPO spin-trapping ESR measurement was used here to verify the formation of superoxide anion radical generated by photosensitization of HB and 2-BA-2-DMHB.

[10] = tested on: EMT6 Ed mouse tumor cells; conditions: 24 J cm−2; Estey's results [8]; cited from earlier work
[11] = in vivo; cited from earlier work
[12] = Singlet oxygen yield by DPA bleaching method; assay type: physicochemical; conditions: in DMSO
Method: as §1

AIDS = conditions: cited from earlier work

Compound	DNA ladder, photosensitizer alone (HeLa cells [1])	DNA ladder at early times (HeLa cells [1])	DNA ladder after photosensitization (HeLa cells [1])	LD50 in the dark (HeLa cells [2])	log6 at first band λmax [3]	log6 at second band λmax [3]	log6 at third band λmax [3]	λmax (nm), first band [3]	λmax (nm), second band [3]	λmax (nm), third band [3]	distribution ratio [Sen/g cells]/[Sen/ml medium] (HeLa cells [4])	sites of sensitizer localization (HeLa cells [5])	photopotentiation factor (LD50 dark / LD50 with 24 J cm−2 red light) (HeLa cells [6])	induction of apoptosis (HeLa cells [8])	hypoploid cell population (HeLa cells [8]; LD90)	toxicity in animals [11]	other results
CCCCNc1c(O)c2c(=O)cc(OC)c3c4c(OC)cc(=O)c5c(O)c(OC)c6c(c(c1C(C(C)=O)=C(C)C6)c23)c54 [Example 2-BA-2-DMHB, 2-butylamino-2-demethoxy-hypocrellin B]	No DNA ladder was observed	No obvious DNA ladder was detected	characteristic DNA ladder observed	more than 100 μM	4.06	4.09	4.10	463 nm	583 nm	621 nm	107.2±4.3	primarily at ER; also recorded: mainly localized at endoplasmic reticulum	more than 250 fold	induced apoptosis	appearance of hypoploid cell population	–	extinction coefficient at 583 nm relative to HB at 548 nm [3]: 2.5 fold; extinction coefficient at 621 nm relative to HB at 580 nm [3]: over 3.8 fold; intra-cellular level relative to HB (HeLa cells [4]; equimolar levels of the drugs): approximately two fold as much as HB; also recorded: approximately two times as much as that of HB; photopotentiation relative to HB (HeLa cells [6]; in vitro): over 25 fold; concentration causing 50% cytotoxicity at light dose of 24 J cm−2 (HeLa cells [6]; red light 24 J cm−2): 0.25–0.5 FM; nuclear morphology in the absence of light irradiation (HeLa cells [7]; 4 μM, 6 h, dark control): remained intact; apoptotic nuclei after photosensitization (HeLa cells [7]; LD70, 24 h post-irradiation): apoptotic nuclei were detected; speed of apoptosis induction (HeLa cells [8]; post-irradiation, LD90): induced apoptosis more quickly than HB; Relative quantum yields (O2−) ([9]; listed as 2-BA-2-DMHD): 2.7
COc1c(O)c2c(=O)cc(OC)c3c4c(OC)cc(=O)c5c(O)c(OC)c6c(c(c1CC(C)=C6C(C)=O)c23)c54 [HB, 3,10-dihydroxyl-4,9-dione-1,12-(2′-methyl-3′-actyl-2′,3′-dehydro)propilidene(1′,3′)-2,6,7,11-tetramethoxyl-perylene, reference compound]	No DNA ladder was observed	No obvious DNA ladder was detected	characteristic DNA ladder observed	about 20 μM	4.06	3.70	3.52	466 nm	548 nm	580 nm	49.1±2.2	prominent lysosomal uptake, and endoplasmic reticulum (ER) staining; also recorded: mainly localized at lysosomal and endoplasmic reticulum	10 fold	induced apoptosis	appearance of hypoploid cell population	low toxicity	photopotentiation factor [10]: 10; Quantum yields (1O2), singlet oxygen yield [12]: 0.76; anti-AIDS action (AIDS): distinct anti-AIDS action; Relative quantum yields (O2−) [9]: 1
COc1c(O)c2c(=O)cc(OC)c3c4c(OC)cc(=O)c5c(O)c(OC)c6c(c(c1CC(C)(O)C6C(C)=O)c23)c54 (stereo not drawn) [hypocrellin A, 3,10-dihydroxyl-4,9-dione-1,12-(2′-hydroxyl-2′-methyl-3′-actyl)propilidene(1′,3′)-2,6,7,11-tetramethoxyl-perylene]	–	–	–	–	–	–	–	–	–	–	–	–	–	–	–	low toxicity	–
